Target: human P2X3 receptor (Homo sapiens (Human), UniProt P56373)
Experiment: Evaluation of human P2X3 receptor inhibitory activity (ATP-induced Fluo-3 fluorescence, FDSS 3000)
Type: cell-based
Conditions: C6BU-1 cell transfected with human P2X3 receptor gene
Procedure: The plate was placed in High-Throughput Screening System FDSS 3000 (Hamamatsu Photonics K.K.). […] Five minutes after, 50 nM ATP solution (50 μL) prepared by dilution with the dilution buffer was dispensed through the built-in automatic dispenser, and the measurement of fluorescence intensity was continued for 3 min. For each well, the specific maximum fluorescence intensity was calculated as the ratio of the maximum fluorescence intensity after addition of the ATP solution to the fluorescence intensity at the starting of the measurement. […] FDSS software (Hamamatsu Photonics K.K.) was used for calculation of the specific maximum fluorescence intensity. IC50 was calculated using Microsoft Excel (Microsoft. Corporation) and XLfit (idbs Ltd.)
The aforementioned in mM, μM and nM are each means mmol/L, μmol/L and nmol/L, respectively.
In tables, μM means μmol/L.

Chain of human P2X3 receptor (P56373 whole entry): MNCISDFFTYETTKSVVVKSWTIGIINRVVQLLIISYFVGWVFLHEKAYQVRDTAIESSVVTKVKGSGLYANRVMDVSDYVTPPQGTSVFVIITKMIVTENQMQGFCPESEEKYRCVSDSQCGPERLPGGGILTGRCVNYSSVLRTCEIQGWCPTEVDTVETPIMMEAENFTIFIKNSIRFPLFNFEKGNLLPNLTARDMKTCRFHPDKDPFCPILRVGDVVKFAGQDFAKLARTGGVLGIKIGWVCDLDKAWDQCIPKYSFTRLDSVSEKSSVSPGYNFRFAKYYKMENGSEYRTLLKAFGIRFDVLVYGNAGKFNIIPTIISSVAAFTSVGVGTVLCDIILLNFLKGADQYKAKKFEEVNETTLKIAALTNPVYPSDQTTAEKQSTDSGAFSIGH

Structure (SMILES) | IC50 [nM]
COC(=O)C(C)(C)Cn1c(=O)cc(Nc2ccc(OC(C)C)c(Cl)c2)n(Cc2ccc(Cl)cc2)c1=O [I-010] | 10
Cc1ccc(Oc2ccc(Nc3ncc(NC(=O)C(C)(C)O)c(=O)n3Cc3ccc(Cl)cc3)cc2)cn1 [I-295] | 2
CC(C)Oc1ccc(Nc2ncc(NC(=O)C3CCOCC3)c(=O)n2Cc2ccc(Cl)cc2)cc1F [I-234, 2-(3-fluoro-4-isopropoxyphenylamino)-3-(4-chlorobenzyl)-5-(tetrahydro-2H-pyrane-4-ylcarbonylamino)pyrimidine-4(3H)-one] | 4
Cc1ccc(Oc2ccc(Nc3ncc(NC(=O)C(CO)CO)c(=O)n3Cc3ccc(Cl)cc3)cc2)cn1 [I-298] | 8
COC(=O)CCCn1c(=O)cc(Nc2ccc(OC(C)C)c(Cl)c2)n(Cc2ccc(Cl)cc2)c1=O [I-103] | 14
CC(C)Oc1ccc(Nc2ncc(/C=C/C(=O)O)c(=O)n2Cc2ccc(Cl)cc2)cc1Cl [I-139, 2-(3-chloro-4-isopropoxyphenylamino)-3-(4-chlorobenzyl)-5-(2-hydroxycarbonylethenyl) pyrimidine-4(3H)-one] | 331
CC(C)Oc1ccc(Nc2ncc(NCCCO)c(=O)n2Cc2ccc(Cl)cc2)cc1F [I-223] | 724
CCOC(=O)c1cn(Cc2ccccc2)c(=O)cc1Nc1ccc(OC(C)C)c(Cl)c1 [I-046, 4-(3-chloro-4-isopropoxyphenylamino)-1-benzyl-5-(ethoxycarbonyl)pyridine-2(1H)-one] | 395
COc1cc(C(=O)Nc2cnc(Nc3ccc(OC(C)C)c(F)c3)n(Cc3ccc(Cl)cc3)c2=O)ccn1 [I-273] | 95
Cc1nc2ccc(Nc3cc(=O)n(CCO)c(=O)n3Cc3ccc(Cl)cc3)cc2s1 [I-355] | 57
CC(C)Oc1ccc(Nc2nc(=O)c(C(=O)NC(CO)CO)cn2Cc2ccc(Cl)cc2)cc1F [I-150] | 120
CCCC(=O)Nc1cnc(Nc2ccc(OC(C)C)c(F)c2)n(Cc2ccc(Cl)cc2)c1=O [I-260] | 15
CC(C)Oc1ccc(NC2=CC(O)N(CC(=O)NC(CO)CO)C(=O)N2Cc2ccc(Cl)cc2)cc1F (centres unmarked) [I-111] | 11
Cc1ccc(Oc2ccc(Nc3ncc(NC(=O)C(CO)CO)c(=O)n3Cc3ccc(Cl)cc3)cc2)cn1 [I-296] | 7
CC(C)Oc1ccc(Nc2ncc(CCC(=O)O)c(=O)n2Cc2ccc(Cl)cc2)cc1F [I-232] | 681
COCCC(=O)Nc1cnc(Nc2ccc(OC(C)C)c(F)c2)n(Cc2ccc(Cl)cc2)c1=O [I-248] | 24
CC(C)Oc1ccc(Nc2ncc(NC(=O)C3CCOCC3)c(=O)n2Cc2ccc(Cl)cc2)cc1 [I-235] | 11
CNc1cnc(Nc2ccc(OC(C)C)c(F)c2)n(Cc2ccc(Cl)cc2)c1=O [I-222] | 560
CSc1ccc(Cn2c(Nc3ccc4nc(C)sc4c3)ncc(NC(=O)C3CCOCC3)c2=O)cc1 [I-312] | 11
CC(C)Oc1ccc(Nc2cc(=O)n(Cc3ccccc3)cc2C(O)c2ccc(Cl)cc2)cc1Cl (stereo not drawn) [I-068, 4-(3-chloro-4-isopropoxyphenylamino)-1-benzyl-5-(4-chloro-α-hydroxybenzyl)pyridine-2(1H)-one] | 105
CC(C)Oc1ccc(Nc2ncc(NCC3CCOCC3)c(=O)n2Cc2ccc(Cl)cc2)cc1F [I-224] | 511
CC(C)Oc1ccc(Nc2ncc(C(=O)N(C)CCO)c(=O)n2Cc2ccc(Cl)cc2)cc1F [I-156] | 509

Structure (SMILES) | IC50 [nM]
CC(C)Oc1ccc(Nc2nc(=O)c(N3CCOCC3)cn2Cc2ccc(Cl)cc2)cc1F [I-209] | 397
CC(C)Oc1ccc(Nc2ncc(C(=O)NCCO)c(=O)n2Cc2ccc(Cl)cc2)cc1F [I-152] | 96
Cc1ccc(Oc2ccc(Nc3ncc(NC(=O)C4COC(C)(C)OC4)c(=O)n3Cc3ccc(Cl)cc3)cc2)cn1 [I-294] | 9
CCn1c(=O)cc(Nc2ccc(Oc3ccnc(C(=O)OC)c3)cc2)n(Cc2ccc(Cl)cc2)c1=O [I-316] | 9
CC(=O)Nc1cnc(Nc2ccc(Oc3ccc(C)nc3)cc2)n(Cc2ccc(Cl)cc2)c1=O [I-291] | 43
CC(C)Oc1ccc(Nc2cc(=O)n(Cc3ccccc3)cc2Cc2ccc(Cl)cc2)cc1Cl [I-067, 4-(3-chloro-4-isopropoxyphenylamino)-1-benzyl-5-(4-chlorobenzyl)pyridine-2(1H)-one] | 310
CCOC(=O)c1cnc(Nc2ccc(OC(C)C)c(Cl)c2)n(Cc2ccc(Cl)cc2)c1=O [I-126] | 50
CCC1(CC)C(=O)N/C(=N\c2ccc(OC(C)C)cc2)N(Cc2ccc(Cl)cc2)C1=O [I-327] | 867
Cc1nc2ccc(Nc3nc(C)c(C(N)=O)c(=O)n3Cc3ccc(Cl)cc3)cc2s1 [I-347] | 182
CCc1nc2ccc(Nc3ncc(NC(=O)C4CCOCC4)c(=O)n3Cc3ccc(Cl)cc3)cc2s1 [I-262] | 3
CNc1ncc(Nc2cccc(C(F)(F)F)c2)c(Cc2ccc(Cl)cc2)n1 [I-190] | 990
O=C(Nc1cnc(Nc2ccc(Oc3cnc(Cl)c(F)c3)cc2)n(Cc2ccc(Cl)cc2)c1=O)C1CCOCC1 [I-311] | 4
CCOC(=O)/C=C/c1cnc(Nc2ccc(OC(C)C)c(Cl)c2)n(Cc2ccc(Cl)cc2)c1=O [I-132, 2-(3-chloro-4-isopropoxyphenylamino)-3-(4-chlorobenzyl)-5-(2-ethoxycarbonylethenyl) pyrimidine-4(3H)-one] | 206
CC(C)Oc1ccc(Nc2ncc(NC(=O)C(C)(C)O)c(=O)n2Cc2ccc(Cl)cc2)cc1F [I-268] | 4
Cc1nc2ccc(Nc3nc(=O)c(C(=O)NC(C)C)cn3Cc3ccc(Cl)cc3)cc2s1 [I-307] | 40
CC(=O)N1CCC(NC(=O)c2cn(Cc3ccc(Cl)cc3)c(Nc3ccc4nc(C)sc4c3)nc2=O)CC1 [I-302] | 87
CC(C)Oc1ccc(Nc2ncc(NC(=O)OC(C)(C)C)c(=O)n2Cc2ccc(Cl)cc2)cc1F [I-158] | 20
CCOC(=O)c1c(O)[nH]/c(=N\c2ccc(OC(C)C)cc2)n(Cc2ccc(Cl)cc2)c1=O [I-334] | 188
CC(=O)Nc1c(O)[nH]/c(=N\c2ccc(OC(C)C)cc2)n(Cc2ccc(Cl)cc2)c1=O [I-339, 1-(4-chlorobenzyl)-3-acetylamino-4-hydroxy-6-(4-isopropoxyphenylimino)-2,3-dihydro-pryimidine-4-one] | 518
Cc1nc2ccc(Nc3cc(=O)n(CCOC4CCCCO4)c(=O)n3Cc3ccc(Cl)cc3)cc2s1 (centres unmarked) [I-353] | 9
Cc1nc2ccc(Nc3ncc(NC(=O)OC(C)(C)C)c(=O)n3Cc3ccc(Cl)cc3)cc2s1 [I-318] | 9
Cc1nc2ccc(Nc3nc(C)c(NC(=O)OC(C)(C)C)c(=O)n3Cc3ccc(Cl)cc3)cc2s1 [I-348] | 105

Structure (SMILES) | IC50 [nM]
CCOC(=O)c1cn(Cc2ccccc2)c(Nc2ccc(OC(C)C)c(Cl)c2)cc1=O [I-049] | 796
Cc1nc2ccc(Nc3ncc(C)c(=O)n3Cc3ccc(Cl)cc3)cc2s1 [I-280] | 237
CC(C)Oc1ccc(Nc2cc(=O)n(CC(CO)CO)c(=O)n2Cc2ccc(Cl)cc2)cc1Cl [I-099] | 6
CCOC(=O)c1cn(Cc2ccc(Cl)cc2)c2cc(Nc3ccccc3)ccc2c1=O [I-148, 1-(4-chlorobenzyl)-7-(phenylamino)-3-(ethoxycarbonyl)quinoline-4(1H)-one] | 324
CC(C)Oc1ccc(Nc2ncc(C(=O)NC(CO)CO)c(=O)n2Cc2ccc(Cl)cc2)cc1F [I-153] | 59
CC(C)Oc1ccc(Nc2cc(=O)n(CC(=O)O)c(=O)n2Cc2ccc(Cl)cc2)cc1F [I-105, 1-(4-chlorobenzyl)-6-(3-fluoro-4-isopropoxyphenylamino)-3-(hydroxycarbonylmethyl)pyrimidine-2,4(1H,3H)-dion] | 412
CC(C)Oc1ccc(Nc2ncc(NC(=O)c3ccn(C)c(=O)c3)c(=O)n2Cc2ccc(Cl)cc2)cc1F [I-279] | 139
CC(C)NC(=O)c1c(O)[nH]/c(=N\c2ccc(OC(C)C)cc2)n(Cc2ccc(Cl)cc2)c1=O [I-332] | 504
COC(=O)Cn1c(=O)cc(Nc2ccc(OC(C)C)c(F)c2)n(Cc2ccc(Cl)cc2)c1=O [I-104, 1-(4-chlorobenzyl)-6-(3-fluoro-4-isopropoxyphenylamino)-3-(methoxycarbonylmethyl)pyrimidine-2,4(1H,3H)-dion] | 96
CCOC(=O)CCC1=CN(Cc2ccc(Cl)cc2)C(Nc2ccc(OC(C)C)c(Cl)c2)=NC1O (centres unmarked) [I-115] | 51
O=C(Nc1cnc(Nc2ccc(Oc3cncc(F)c3)cc2)n(Cc2ccc(Cl)cc2)c1=O)C1CCOCC1 [I-245] | 0.8
CC(C)Oc1ccc(Nc2ncc(NC(=O)CC3CCOCC3)c(=O)n2Cc2ccc(Cl)cc2)cc1F [I-233] | 49
Cc1ccc(Cc2c(Nc3ccc(OC(C)C)cc3)[nH]c(=O)n(Cc3ccccc3)c2=O)cc1 [I-014] | 404
CC(C)Oc1ccc(Nc2cc(=O)n(CC(C)(C)C(=O)O)c(=O)n2Cc2ccc(Cl)cc2)cc1Cl [I-012] | 6
CC(C)Oc1ccc(Nc2ncc(C(=O)N[C@@H](C)C(=O)O)c(=O)n2Cc2ccc(Cl)cc2)cc1F [I-201] | 229
CCNC(=O)Nc1cnc(Nc2ccc(OC(C)C)c(F)c2)n(Cc2ccc(Cl)cc2)c1=O [I-250] | 7
CCOC(=O)c1c(C)nc(Nc2ccc3nc(C)sc3c2)n(Cc2ccc(Cl)cc2)c1=O [I-345] | 273
CC(=O)Nc1cnc(Nc2ccc(OC(C)C)c(F)c2)n(Cc2ccc(Cl)cc2)c1=O [I-246] | 106
CC(C)Oc1ccc(Nc2ncc(C(=O)O)c(=O)n2Cc2ccc(Cl)cc2)cc1Cl [I-129] | 490
COC(=O)C(C)(C)Cn1c(=O)cc(Nc2cccc(C(F)(F)F)n2)n(Cc2ccc(Cl)cc2)c1=O [I-108, 1-(4-chlorobenzyl)-3-(2-methoxycarbonyl-2-methylpropyl)-6-(6-trifluoromethyl-2-pyridylamino)pyrimidine-2,4(1H,3H)-dion] | 61
CCn1c(=O)cc(Nc2ccc(Oc3cncc(C(=O)OC)c3)cc2)n(Cc2ccc(Cl)cc2)c1=O [I-314] | 35
